Measurements published in patent US20250205188A1, “TREATMENT OR PREVENTION OF RESPIRATORY DISEASES CHARACTERISED BY, OR INVOLVING, LUNG FIBROSIS” (IMPERIAL COLLEGE INNOVATIONS LIMITED, priority 2022, published 2025).

How the values were obtained:
[1] = tested on: Human lung fibroblast cells; test: RT-PCR gene expression in TGFβ fibrosis model of human lung fibroblast cells; format: cell-based; conditions: 10 mM for 1 hour, then 2 ng/mL TGFβ 24 hours, relative to untreated cells; for gene expression of Col1α1: FIG. 2A; for gene expression of FN1: FIG. 2B; for gene expression of CTGF: FIG. 2C
Source text: Primary human lung fibroblasts were isolated from lung resections of patients undergoing lung cancer surgery or lung transplantation performed after informed consent as approved by an external Research Ethics Committee (REC 15/SC0101) according to Royal Brompton Hospital protocol (Royal Brompton & Harefield NHS Foundation Trust, 2016). Fibroblasts from healthy individuals were also purchased from Lonza (Lonza, Basel, Switzerland).
Real Time PCR After treatment, the supernatant liquid was removed from cell cultures and RLT buffer containing 1% beta-mercaptoethanol was added to each well and then was frozen for later analysis. RNA extraction of cells was performed using the RNeasy Plus Mini Kit (QIAGEN), according to the manufacturer's protocol. Samples were defrosted at room temperature and centrifuged. The homogenate was transferred onto RNeasy MinElute spin columns and purified. RNA was reverse-transcribed into cDNA using the High-Capacity cDNA Reverse Transcription Kit (ThermoFisher) according to the manufacturer's instructions. Real-time PCR was performed using fast-qPCR mastermix (QIAGEN) on a Viia-7 instrument (Applied Biosciences) with Taqman primers for human genes, namely acod1, cd163, fn1, IL-1β, mmp1, mmp9 using actb (Life Technologies) as housekeeping gene.
Fibroblasts are the principal effector cell during lung fibrosis and the main source of the excessive extracellular matrix deposition seen during the disease. To explore the anti-fibrotic properties of itaconate analogues in human fibroblast cells, qPCR experiments were undertaken. Human lung fibroblast cells were seeded (10,000 cells/well) in a 48-well plate and were incubated with ICL-PO, ICL-2, ICL-3, ICL-4, ICL-6, itaconate, dimethyl itaconate, sodium itaconate and dimethyl malonate for 1 hour, after which the supernatant liquid was removed. The healthy fibroblasts were then incubated with 2 ng/mL transforming growth factor beta (TGFβ) for 24 hours in order to mimic pulmonary fibrosis. TGFβ is activated in fibrotic diseases and plays a key role in mediating fibrotic tissue. After treatment, RNA extraction of the cells was performed and 10 μg RNA per sample was reverse transcribed into cDNA. RT-PCR was performed with TaqMan primers for Col1α1, connective tissue growth factor (CTGF) and fibronectin (FN1) human genes. The results are shown in FIG. 2—(A) Gene expression of COL1A1 relative to two housekeeping genes (bactin and Beta-2-Microglobulin-averaged to make a ‘pooled’ control); (B) Gene expression of FN1 relative to housekeeping gene; and (C) Gene expression of CTGF relative to housekeeping gene.

[2] = tested on: Healthy primary human lung fibroblasts; test: Seahorse glycolytic stress test (ECAR); format: cell-based; conditions: 0.1 mM, 1 mM and 10 mM for 1 hour, then with or without 2 ng/ml TGF-β1 24 hours; FIGS. 4 and 5
Description: Healthy primary human lung fibroblasts (10,000 per well) were seeded in a seahorse plate pre-coated with Cell Tak (BD Biosciences, Oxford, UK). After an overnight incubation, fibroblasts were treated with different itaconate analogues for 1 hour and they were subsequently incubated with or without 2 ng/ml TGF-β1 for 24 hours. XF medium (nonbuffered RPMI containing 2 mM glutamine, 1 mM pyruvate and 10 mM glucose, pH 7.4, Agilent, Santa Clara, USA) was used to measure Oxygen Consumption Rate (OCR) and Extracellular Acidification Rate (ECAR) with the XFp extracellular flux analyser. The Seahorse glycolytic Stress Test (Agilent, Santa Clara, USA) was utilized to measure OCR and ECAR at baseline. Healthy primary human lung fibroblasts (10,000 per well) were seeded in a seahorse plate pre-coated with Cell Tak (BD Biosciences, Oxford, UK). After an overnight incubation, fibroblasts were treated with different concentrations (0.1 mM, 1 mM and 10 mM) of the itaconate analogues, citraconate or mesaconate, for 1 hour and they were subsequently incubated with or without 2 ng/ml TGF-β1 for 24 hours. XF medium (nonbuffered RPMI containing 2 mM glutamine, 1 mM pyruvate and 10 mM glucose, pH 7.4, Agilent, Santa Clara, USA) was used to measure an Extracellular Acidification Rate (ECAR) with the XFp extracellular flux analyser for the citraconate assay (FIG. 4) or mesaconate assay (FIG. 5). […]

lung fibrosis in mice = conditions: inhaled (particularly oropharyngeal inhalation); cited from earlier work
human lung fibroblasts = conditions: exogenous itaconate added to cultures; cited from earlier work

Row | SMILES | gene expression of Col1α1 [1] | gene expression of FN1 [1] | gene expression of CTGF [1] | Extracellular Acidification Rate (ECAR) [2] | lung fibrosis (lung fibrosis in mice) | proliferation of human lung fibroblasts (human lung fibroblasts) | wound healing of human lung fibroblasts (human lung fibroblasts)
1 | C=C(CC(=O)O)C(=O)N(C)C [ICL-2, Sodium 3-(dimethylcarbamovl)-3-methvlidenepropanoate] | decreased gene expression | decreased gene expression | decreased gene expression |  |  |  | 
2 | C=C(CC(=O)[O-])C(=O)[O-].[Na+].[Na+] [sodium itaconate, reference compound] | decreased gene expression | decreased gene expression | decreased gene expression |  |  |  | 
3 | C/C(=C\C(=O)O)C(=O)O [mesaconate] |  |  |  | concentration dependent reduction in ECAR |  |  | 
4 | COC(=O)CC(=O)OC [dimethyl malonate, reference compound] | decreased gene expression | decreased gene expression | decreased gene expression |  |  |  | 
5 | C/C(=C/C(=O)O)C(=O)O [citraconate] |  |  |  | concentration dependent reduction in ECAR |  |  | 
6 | C=C(CC(=O)OC)C(=O)OC [dimethyl itaconate] | decreased gene expression | decreased gene expression | decreased gene expression |  |  |  | 
7 | C=C(CC(=O)N(C)C)C(=O)O [ICL-PO, 3-(dimethylcarbamoyl)-2-methvlidenepropanoic acid] | decreased gene expression | decreased gene expression | decreased gene expression |  |  |  | 
8 | C=C(CC(=O)OC(C)(C)C)C(=O)OC(C)(C)C [ICL-4, Bis(2-methyl-2-propanyl)-2-methylenesuccinate] | decreased gene expression | decreased gene expression | decreased gene expression |  |  |  | 
9 | C/C=C(\CC(=O)O)C(=O)O [ICL-3, (2E)-2-ethylidenebutanedioic acid] | decreased gene expression | decreased gene expression | decreased gene expression |  |  |  | 
10 | C=C(CC(=O)O)C(=O)OC [ICL-6, 3-(methoxycarbonyl)but-3-enoic acid] | decreased gene expression | decreased gene expression | decreased gene expression |  |  |  | 
11 | C=C(CC(=O)O)C(=O)O [itaconate, 2-methylidenebutanedioic acid, reference compound] | decreased gene expression | decreased gene expression | decreased gene expression |  | ameliorates lung fibrosis | limits | limits
